Measured values published in patent US6825194B2, “Hexacyclic compounds” (Chugai Seiyaku Kabushiki Kaisha, priority 2001, dated 2004).
Like-named read-outs stand apart in the source and are kept apart here.

Tests used:
[1] = system: DLD-1; assay: Anti-proliferative activity assay, DLD-1; format: cell-based, human; details: DLD-1 colorectal cancer cells, 4 days, WST-8, read-out: Anti-proliferative activity assay (IC50 in nM) DLD-1 (CRC)
Procedure: (§1) Antiproliferative activity assay was carried out as follows. A single suspension of tumor cells was inoculated to the serially diluted 96-well microtestplate. Then the testplate was incubated in the 5% CO2 ambience at 37° C. for 4 days (2-3×10^3 cells/well). The degree of cell growth in a monolayer was measured by using WST-8 (Dojindo, Japan). IC50 values of drugs against tumor cells were calculated as the concentration of drug yielding 50% OD of the control growth. The IC50 value measures the drug concentration for 50% of the growth of tumor cells in vitro as compared to the control.
(§2) The anti-tumor activities of hexacyclic compounds of the formula [1A] and [1B] against in vitro growth of human tumor cell lines, HCT116 and DLD-1 of colorectal cancer (CRC) and QG56 and NCI-H460 of non small cell lung cancer (NSCLC) are summarized in Table 1. These cell lines are commercially available via the American Type Culture Collection (ATTC).

[2] = system: NCI-H460; assay: Anti-proliferative activity assay, NCI-H460; format: cell-based, human; details: NCI-H460 non small cell lung cancer cells, 4 days, WST-8, read-out: Anti-proliferative activity assay (IC50 in nM) NCI-H460 (NSCLC)
Procedure: as §1, §2

[3] = system: HCT116; assay: Anti-proliferative activity assay, HCT116; format: cell-based, human; details: HCT116 colorectal cancer cells, 4 days, WST-8, read-out: Anti-proliferative activity assay (IC50 in nM) HCT116 (CRC)
Procedure: as §1, §2

[4] = system: QG56; assay: Anti-proliferative activity assay, QG56; format: cell-based, human; details: QG56 non small cell lung cancer cells, 4 days, WST-8, read-out: Anti-proliferative activity assay (IC50 in nM) QG56 (NSCLC)
Procedure: as §1, §2

[5] = converted to the inactive carboxylate form; cited from earlier work

SMILES	IC50 ([1]; Homo sapiens, 96 h) [nM]	IC50 ([2]; Homo sapiens, 96 h) [nM]	IC50 ([3]; Homo sapiens, HCT-116, 96 h) [nM]	IC50 ([4]; Homo sapiens, QG-56, 96 h) [nM]	IC50 [1] [nM]	IC50 [2] [nM]	IC50 [3] [nM]	IC50 [4] [nM]	half-life in plasma [5]
CC[C@@]1(O)C(=O)OCc2c1cc1n(c2=O)Cc2c-1nc1cccc3c1c2N(CCc1ccccc1)C(=O)N3 [Compound A, (9S)-9-ethyl-9-hydroxy-1-phenethyl-1H,12H-pyrano[3″,4″:6′,7′]indolizino[1′,2′:6,5]pyrido[4,3,2-de]quinazoline-2,10,13(3H,9H,15H)-trione]	11	6.5	1.9	7.1	–	–	–	–	–
CCCCCN1C=Nc2cccc3nc4c(c1c23)Cn1c-4cc2c(c1=O)COC(=O)[C@]2(O)CC [Compound B, (9S)-9-ethyl-9-hydroxy-1-pentyl-1H,12H-pyrano[3″,4″:6′,7′]indolizino[1′,2′:6,5]pyrido[4,3,2-de]quinazoline-10,13(9H,15H)-dione]	23	7	6.1	7.7	–	–	–	–	–
CC[C@@]1(O)C(=O)OCc2c1cc1n(c2=O)Cc2c-1nc1cccc3c1c2NC(=S)N3CCC(C)C [Compound D, (9S)-9-ethyl-9-hydroxy-1-(3-methylbutyl)-2(3H)-thioxo-1H,12H-pyrano[3″,4″:6′,7′]indolizino[1′,2′:6,5]pyrido[4,3,2-de]quinazoline-10,13(9H,15H)-dione]	–	–	–	–	15	10	5.1	17	–
CCCCCN1C(C)=Nc2cccc3nc4c(c1c23)Cn1c-4cc2c(c1=O)COC(=O)[C@]2(O)CC [Compound E, (9S)-9-ethyl-9-hydroxy-2-methyl-1-pentyl-1H,12H-pyrano[3″,4″:6′,7′]indolizino[1′,2′:6,5]pyrido[4,3,2-de]quinazoline-10,13(9H,15H)-dione]	15	7.9	4.5	15	–	–	–	–	–
CC[C@@]1(O)C(=O)OCc2c1cc1n(c2=O)Cc2c-1nc1cccc3c1c2N(CCC(C)C)C(CO)=N3 [Compound F, (9S)-9-ethyl-9-hydroxy-2-hydroxymethyl-1-(3-methylbutyl)-1H,12H-pyrano[3″,4″:6′,7′]indolizino[1′,2′:6,5]pyrido[4,3,2-de]quinazoline-10,13(9H,15H)-dione]	12	4.8	3.1	7.4	–	–	–	–	–
CCc1c2c(nc3ccc(O)cc13)-c1cc3c(c(=O)n1C2)COC(=O)[C@]3(O)CC [SN-38, 7-ethyl-10-hydroxycamptothecin, reference compound]	–	–	–	–	53	21	6.9	27	–
CC[C@@]1(O)C(=O)OCc2c1cc1n(c2=O)Cc2cc3ccccc3nc2-1 [camptothecin, 4(S)-ethyl-4-hydroxy-1H-pyrano[3′,4′:6,7]indolizino[1,2-b]quinoline-3,14(4H,12H)-dione]	–	–	–	–	–	–	–	–	less than 30 min
